Counter-ions that a name gives are not always drawn.
Biological target: T1, FAAH (Rattus norvegicus, UniProt P97612)
T1 construct: Preparation of Rat Brain Membranes Preparations (FAAH Enzyme Solution); from tissue; host or cells: rat cerebrum (brain membrane preparation)
T1 sequence (P97612 1-579): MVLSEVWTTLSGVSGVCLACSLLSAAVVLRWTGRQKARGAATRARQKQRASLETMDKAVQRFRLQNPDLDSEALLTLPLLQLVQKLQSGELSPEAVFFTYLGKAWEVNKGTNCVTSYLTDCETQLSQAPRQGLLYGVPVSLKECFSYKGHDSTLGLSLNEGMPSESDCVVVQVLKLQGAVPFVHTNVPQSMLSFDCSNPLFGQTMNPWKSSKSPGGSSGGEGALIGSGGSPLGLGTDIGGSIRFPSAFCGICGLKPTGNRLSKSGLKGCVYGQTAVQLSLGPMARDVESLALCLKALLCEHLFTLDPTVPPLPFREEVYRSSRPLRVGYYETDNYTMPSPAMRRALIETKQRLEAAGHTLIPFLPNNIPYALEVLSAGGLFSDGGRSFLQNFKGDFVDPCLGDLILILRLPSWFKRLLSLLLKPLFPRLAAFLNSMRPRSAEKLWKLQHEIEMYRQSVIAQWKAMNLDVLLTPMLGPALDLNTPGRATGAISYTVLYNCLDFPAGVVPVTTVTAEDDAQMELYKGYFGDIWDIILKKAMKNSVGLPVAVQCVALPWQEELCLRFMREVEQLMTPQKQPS
Experiment: Determination of FAAH inhibitory activity in rat (rat brain membrane preparations, [3H]-anandamide hydrolysis)
Assay type: biochemical
Conditions: rat brain membrane preparations; for inhibition at 0.1 µM: 100 nM test substance, read-out: FAAH Inhibition, Inhibition Rate at 100 nM; for IC50: test substance 0.1 nM to 1 μM, read-out: FAAH Inhibition IC50
Method in brief: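 Rat cerebrum membranes (100 μg/mL protein) preincubated 10 min at 37 °C with compound (1% DMSO) in pH 7.6 Tris buffer with 1.5% BSA. Substrate 2 nM [3H]-anandamide plus 2 μM anandamide added for 10 min at 37 °C. [3H]-ethanolamine in the aqueous phase after chloroform/methanol extraction was scintillation counted; IC50 over 0.1 nM–1 μM.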

inhibition at 0.1 µM [%] | IC50 [nM] | SMILES
83 | 52 | CN(C)C(=O)n1c(=O)n(C)c2cnc(-c3ccc(C(F)(F)F)cc3)nc21 [Example 326, N,N,7-Trimethyl-8-oxo-2-[4-(trifluoromethyl)phenyl]-7,8-dihydro-9H-purine-9-carboxamide]
62 | 95 | CN(C)C(=O)n1c(=O)n(C)c2cnc(-c3ccc(C(F)F)cc3)nc21 [Example 330, 2-[4-(Difluoromethyl)phenyl]-N,N,7-trimethyl-8-oxo-7,8-dihydro-9H-purine-9-carboxamide]
77 | 33 | CN(C)C(=O)n1c(=O)n(C)c2cnc(-c3cccc(OC(F)F)c3)nc21 [Example 331, 2-[3-(Difluoromethoxy)phenyl]-N,N,7-trimethyl-8-oxo-7,8-dihydro-9H-purine-9-carboxamide]
78 | 38 | CN(C)C(=O)n1c(=O)n(C)c2cnc(-c3cccc(C(F)F)c3)nc21 [Example 332, 2-[3-(Difluoromethyl)phenyl]-N,N,7-trimethyl-8-oxo-7,8-dihydro-9H-purine-9-carboxamide]
88 | 25 | CN(C)C(=O)n1c(=O)n(C)c2cnc(-c3ccc(OCC(F)(F)F)cc3)nc21 [Example 334, N,N,7-Trimethyl-8-oxo-2-[4-(2,2,2-trifluoroethoxy)phenyl]-7,8-dihydro-9H-purine-9-carboxamide]
74 | 33 | CN(C)C(=O)n1c(=O)n(C)c2cnc(-c3cccc(OCC(F)F)c3)nc21 [Example 335, 2-[3-(2,2-Difluoroethoxy)phenyl]-N,N,7-trimethyl-8-oxo-7,8-dihydro-9H-purine-9-carboxamide]
85 | 20 | CN(C)C(=O)n1c(=O)n(C)c2cnc(-c3cccc(OCC(F)(F)F)c3)nc21 [Example 336]
82 | 46 | CN(C)C(=O)n1c(=O)n(C)c2cnc(-c3ccc(OC(F)F)cc3)nc21 [Example 337, 2-[4-(Difluoromethoxy)phenyl]-N,N,7-trimethyl-8-oxo-7,8-dihydro-9H-purine-9-carboxamide]
83 | 21 | CN(C)C(=O)n1c(=O)n(C)c2cnc(-c3ccc(C(F)(F)F)cc3F)nc21 [Example 338, 2-[2-Fluoro-4-(trifluoromethyl)phenyl]-N,N,7-trimethyl-8-oxo-7,8-dihydro-9H-purine-9-carboxamide]
80 | 7 | CN(C)C(=O)n1c(=O)n(C)c2cnc(-c3ccc(C(F)(F)F)cc3Cl)nc21 [Example 339, 2-[2-Chloro-4-(trifluoromethyl)phenyl]-N,N,7-trimethyl-8-oxo-7,8-dihydro-9H-purine-9-carboxamide]
72 | 95 | COc1ccc(-c2ncc3c(n2)n(C(=O)N2CCC2)c(=O)n3C)cc1 [Example 356, 9-(Azetidin-1-ylcarbonyl)-2-(4-methoxyphenyl)-7-methyl-7,9-dihydro-8H-purine-8-one]
94 | 24 | COc1cccc(Cc2ncc3c(n2)n(C)c(=O)n3C(=O)N2CCC2)c1 [Example 375, 7-(Azetidin-1-ylcarbonyl)-2-(3-methoxybenzyl)-9-methyl-7,9-dihydro-8H-purine-8-one]
96 | 13 | Cn1c(=O)n(C(=O)N2CCC2)c2cnc(Cc3cccc(C(F)(F)F)c3)nc21 [Example 379, 7-(Azetidin-1-ylcarbonyl)-9-methyl-2-[3-(trifluoromethyl)benzyl]-7,9-dihydro-8H-purine-8-one]
100 | 8 | COCCCc1ncc2c(n1)n(C)c(=O)n2C(=O)N1CC(c2ccc(C(F)(F)F)cc2)C1 [Example 380, 2-(3-methoxypropyl)-9-methyl-7-({3-[4-(trifluoromethyl)phenyl]azetidin-1-yl}carbonyl)-7,9-dihydro-8H-purine-8-one]
84 | 8 | COCCCc1ncc2c(n1)n(C)c(=O)n2C(=O)N1CC(c2ccc(F)cc2)C1 [Example 381]
80 | 5 | COCCCc1ncc2c(n1)n(C)c(=O)n2C(=O)N1CC(c2cccc(F)c2)C1 [Example 382]
65 | 14 | COCCCc1ncc2c(n1)n(C)c(=O)n2C(=O)N1CC(c2ccccc2)C1 [Example 383]
8 | > 100 | COCCCc1ncc2c(n1)n(C)c(=O)n2C(=O)N1CC(Oc2ccccc2)C1 [Example 384]
99 | 5 | CCOc1ccc(C2CN(C(=O)n3c(=O)n(C)c4nc(CCCOC)ncc43)C2)cc1 [Example 385]
93 | 7 | COCCCc1ncc2c(n1)n(C)c(=O)n2C(=O)N1CC(c2cccc(C(F)(F)F)c2)C1 [Example 386]
92 | 22 | CCOc1cccc(C2CN(C(=O)n3c(=O)n(C)c4nc(CCCOC)ncc43)C2)c1 [Example 387]

inhibition at 0.1 µM [%] | IC50 [nM] | SMILES
100 | 5 | COCCc1ncc2c(n1)n(C)c(=O)n2C(=O)N1CC(c2ccc(C(F)(F)F)cc2)C1 [Example 388, 2-(2-methoxyethyl)-9-methyl-7-({3-[4-(trifluoromethyl)phenyl]azetidin-1-yl}carbonyl)-7,9-dihydro-8H-purine-8-one hydrochloric acid salt]
94 | 7 | CN(C)C(=O)n1c(=O)n(C)c2cnc(CCCOc3ccc(C(F)(F)F)cc3)nc21 [Example 394, N,N,7-trimethyl-8-oxo-2-{3-[4-(trifluoromethyl)phenoxy]propyl}-7,8-dihydro-9H-purine-9-carboxamide hydrochloric acid salt]
78 | 32 | CN(C)C(=O)n1c(=O)n(C)c2cnc(CCCOc3cccc(F)c3)nc21 [Example 395]
52 | 78 | Cc1ccc(OCCCc2ncc3c(n2)n(C(=O)N(C)C)c(=O)n3C)cc1 [Example 396]
76 | 32 | Cc1cccc(OCCCc2ncc3c(n2)n(C(=O)N(C)C)c(=O)n3C)c1 [Example 397]
84 | 9 | CN(C)C(=O)n1c(=O)n(C)c2cnc(CCCOc3ccc(F)cc3)nc21 [Example 398]
95 | 6 | CN(C)C(=O)n1c(=O)n(C)c2cnc(CCCOc3cccc(C(F)(F)F)c3)nc21 [Example 399]
88 | 98 | Cn1c(=O)n(C(=O)N2CCC2)c2nc(CCCOc3ccccc3)ncc21 [Example 400]
99 | 9 | Cn1c(=O)n(C(=O)N2CCC2)c2nc(CCCOc3ccc(F)cc3)ncc21 [Example 401, 9-(Azetidin-1-ylcarbonyl)-2-[3-(4-fluorophenoxy)propyl]-7-methyl-7,9-dihydro-8H-purine-8-one]
103 | 10 | Cn1c(=O)n(C(=O)N2CCC2)c2cnc(COc3ccc(F)cc3)nc21 [Example 402, 7-(azetidin-1-ylcarbonyl)-2-[(4-fluorophenoxy)methyl]-9-methyl-7,9-dihydro-8H-purine-8-one]
96 | 10 | COc1cccc(OCc2ncc3c(n2)n(C)c(=O)n3C(=O)N2CCC2)c1 [Example 404, 7-(Azetidin-1-ylcarbonyl)-2-[(3-methoxyphenoxy)methyl]-9-methyl-7,9-dihydro-8H-purine-8-one]
98 | 3 | CCc1cccc(OCc2ncc3c(n2)n(C(=O)N(C)C)c(=O)n3C)c1 [Example 413]
84 | 64 | CN(C)C(=O)n1c(=O)n(C)c2cnc(COc3cccc(Cl)c3)nc21 [Example 414]
41 | 148 | Cn1c(=O)n(C(=O)N2CCC2)c2nc(COc3ccccc3)ncc21 [Example 415]
50 | 112 | Cc1ccccc1OCc1ncc2c(n1)n(C(=O)N1CCC1)c(=O)n2C [Example 416]
66 | 33 | Cc1cccc(OCc2ncc3c(n2)n(C(=O)N2CCC2)c(=O)n3C)c1 [Example 417]
75 | 35 | CCc1cccc(OCc2ncc3c(n2)n(C(=O)N2CCC2)c(=O)n3C)c1 [Example 418]
81 | 31 | Cn1c(=O)n(C(=O)N2CCC2)c2nc(COc3cccc(Cl)c3)ncc21 [Example 419]
60 | 65 | Cn1c(=O)n(C(=O)N2CCC2)c2nc(COc3cccc(F)c3)ncc21 [Example 420]
85 | 95 | CN(C)C(=O)n1c(=O)n(C)c2cnc(COc3ccccc3Cl)nc21 [Example 421]

— patent publication US8735406B2, “8-oxodihydropurine derivative” (Dainippon Sumitomo Pharma Co., Ltd., priority 2009, dated 2014)
